Data as given in PMC8954547, “Nonpeptidic Z360-Analogs Tagged with Trivalent Radiometals as Anti-CCK2R Cancer Theranostic Agents: A Preclinical Study” (Pharmaceutics, 2022).

Assay: Radioligand stability in mice (radio-HPLC of blood and urine)
Type: in vivo
Conditions: mean ± SD
Method in brief: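 Male Swiss albino mice (n=3) given 2.5–3 nmol radioligand i.v. via tail vein in saline/EtOH 9/1. Blood at 5 min and urine at 30 min pi, EDTA-treated on ice, MeCN-deproteinised, analysed by radio-RP-HPLC; value is mean percent intact radioligand ± SD.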

Structure (SMILES): CC(C)(C)C(=O)CN1C(=O)[C@H](NC(=O)Nc2cccc(C(=O)NCCOCCOCCOCCNC(=O)[C@H](CCC(=O)O)NC(=O)CCC(C(=O)O)N3CCN(CC(=O)[O-])CCN(CC(=O)[O-])CCN(CC(=O)[O-])CC3)c2)CN(C2CCCCC2)c2ccccc21.[177Lu+3] (stereo in doubt) [[^177Lu]Lu-GAS3]
- Intact radioligand in blood (mice blood collected 5 min pi): 95.8 ± 2.0 (3) %
- Intact radioligand in urine (mice urine collected 30 min pi): 88.1 ± 0.4 (3) %
